What all share (assay): NCI anticancer screen, dose series, 48 h
Test [1] deals with NCI-H23 lung.
In test [2] the test system is XF 498 CNS.
The test system of test [3] is KM20L2 colon.
The subject of test [4] is M19-MEL melanoma.
In test [5] the test system is LXFL 529 NSCLC.
Test [6] deals with DLD-1 colon.
In test [7] the test system is DMS 114 small cell lung.
The test system of test [8] is DMS 273 small cell lung.
Test [9] has as its system SNB-78 CNS.

The values below come from PubChem BioAssay (NCI).

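The compound was tested at five concentrations on cells cultured in 96-well plates, with a 48-hour exposure period. GI50 is the concentration that inhibits growth by half. The concentration for full growth arrest is given as TGI.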

In [1], `C[C@@]12C[C@@H](c3ccccc3O1)N1CCCCSC1=N2` had a TGI of more than 100 µM.

`COc1ccc(N2C(=O)C3c4[nH]c5ccccc5c4C4CCC(C(C)(C)C)CC4C3C2=O)c(C)c1` (stereo not given) registered a TGI in test [1] of more than 100 µM.

The molecule `C=C1c2nc3ccccc3n2C=C(c2ccccc2)N1c1ccc([N+](=O)[O-])cc1` yielded a TGI in test [1] of 38.5 µM.

`O=c1[nH]cc(N=Cc2cc(Cl)cc(Cl)c2O)c(=O)[nH]1` had a TGI in test [1] of 75.3 µM.

On to `Oc1cc2c3c(c1)c1cc4c(cc1c[n+]3CC2)OCO4`, for which the TGI in [1] was 13.3 µM.

`O=C(O)c1cccc2c1/C(=N/Nc1ccccc1)CC2` registered a TGI in test [1] of more than 100 µM.

Consider `O=c1[nH][nH]c(=O)n1Cc1ccccc1Cn1c(=O)[nH][nH]c1=O`, for which the TGI in test [1] is more than 100 µM.

Take `O=C(NNC(=O)c1ccccc1SSc1ccccc1C(=O)NNC(=O)c1ccccc1S)c1ccccc1S`: the TGI in test [1] was found to be 62.2 µM.

Molecule `c1ccc(N=C2SC3=Nc4cccc5cccc(c45)N3C2=Nc2ccccc2)cc1` returned a TGI in test [1] of more than 100 µM.

As to `Cc1ccccc1-n1c(=O)c2ncn(CCCl)c2n(-c2ccccc2C)c1=S`, the TGI in test [1] is more than 100 µM.

Regarding `CC1(C)N=C(/C(Cl)=[N+](/[O-])C(=O)c2ccc(F)cc2)C(C)(C)N1O`, in test [1], the TGI is 42.8 µM.

On to `Cc1nc(C(N)=S)sc1/C(CC(=O)C(=O)Nc1cccc2ccc(O)cc12)=N\NC(=O)c1ccncc1`, for which the TGI in [1] is more than 100 µM.

`CN1CCN([C@H]2C[C@H]3[C@@H]4CC=C5C[C@@H](O)CC[C@]5(C)[C@H]4CC[C@]3(C)C2=O)CC1` yielded a TGI in test [1] of more than 100 µM.

As for `CCOC(=O)N1CCC2(CC1)C[C@](C)(C(C)=O)C(C)O2` (stereo not given in full), the TGI in test [1] is more than 100 µM.

Consider `C=C(C1=CC(=O)C(C)(C)O1)[C@@H]1CC=C([C@@H]2CC[C@H]3[C@@]2(C)CC[C@H]2C(C)(C)C(=O)[C@H](O)C[C@]32C)[C@H](O)O1`, for which the TGI in [1] stood at 12.6 µM.

As to `C(/c1ccco1)=c1/nc(-c2ccccc2)n2c1nc1ccccc12`, the TGI in test [1] is more than 100 µM.

In the case of `CCNC(=S)N/N=C/c1cc([N+](=O)[O-])ccc1O`, the TGI in [1] is more than 100 µM.

As for `Cc1cc(O)c2c(=O)c3ccccc3[nH]c2c1`, the TGI in test [1] is more than 100 µM.

For `Oc1cccc2c(Cl)ccnc12`, the TGI in test [1] was 26.2 µM.

With `CC(=O)O[C@H]1C(=O)[C@]2(C)[C@@H](OC(=O)OCCC(O)CO)C[C@H]3OC[C@@]3(OC(C)=O)[C@H]2[C@H](OC(=O)c2ccccc2)[C@]2(O)C[C@H](OC(=O)[C@H](O)[C@@H](NC(=O)c3ccccc3)c3ccccc3)C(C)=C1C2(C)C` (stereo not given in full), in test [1], the TGI turned out to be 21.7 µM.

For the molecule `COc1cc2c(cc1OC)C(c1ccccc1CCCCl)=NCC2`, the TGI in test [1] is more than 100 µM.

On to `Clc1cc(OC2C3CC4CC(C3)CC2C4)nc(Cl)n1` (stereo not given), for which, in test [1], the TGI was 31 µM.

As to `Cc1ccc(SCC(CSCCO)OCn2cnc3c2NC(N)=NC32OCCO2)cc1` (stereo not given), the TGI in [1] was more than 100 µM.

Molecule `Cc1cccc(/C=N/NC(=S)Nc2ccccc2)n1` came in with a TGI in test [1] of more than 72.7 µM.

Regarding `Cc1cccc2c(=O)cc(-c3ccccc3)[nH]c12`, the TGI is more than 100 µM in test [2]; more than 100 µM in test [1]; 19.4 µM in test [3]; more than 100 µM in test [4]; more than 100 µM in test [5]; more than 100 µM in test [6]. The TGI in test [7] and in test [8] was more than 100 µM each time.

Turning to `COc1cc([C@@H]2c3cc4c(cc3[C@@H](Nc3ccc([N+](=O)[O-])cc3C(=O)c3ccccc3)[C@H]3COC(=O)[C@H]23)OCO4)cc(OC)c1OC`, the TGI in [1] was more than 28.6 µM.

In [1], `CCCN=C1CCN(Cc2ccccc2)c2ccccc2N1` came in with a TGI of 41.5 µM.

With `CC(C)c1ccc(/C=C2/C=C(c3ccc4ccccc4c3)OC2=O)cc1`, the TGI in test [1] was more than 100 µM.

As to `COc1cc(/C=C/C(=N\NS(=O)(=O)c2ccc(C)cc2)c2sc(NNC(C)=O)nc2C)ccc1O`, the TGI in test [1] is more than 100 µM.

The molecule `Oc1ccc(-c2nc(-c3cccnc3)c(-c3ccc(F)cc3)[nH]2)cc1` showed a TGI in [1] of 25.5 µM.

In turn, `COc1cc(/C=C2\S/C(=N/Nc3nc(-c4ccc(Br)cc4)cs3)NC2=O)cc(OC)c1OC` displayed a TGI in [1] of 25.7 µM.

For the molecule `CCC1(O)CC2CC(=O)OC2C1O` (stereo not given), the TGI in test [1] is more than 100 µM.

`CCOC(=O)Nn1c(C)nnc1-c1ccccc1` had a TGI in [1] of more than 100 µM.

In test [1], `Cc1cn(C2CC(N(O)C(N)=O)C(CO)O2)c(=O)[nH]c1=O` (stereo not given) registered a TGI of more than 100 µM.

In test [1], `O=[N+]([O-])/C(C(Cl)=C(Cl)Cl)=C(\SCc1ccccc1)N1CCCCC1` came in with a TGI of 42.1 µM.

Molecule `CC(C)/C(Cl)=N\OC(=O)Nc1ccc(S(N)(=O)=O)cc1` yielded a TGI in [1] of 37.8 µM.

Consider `NC(=O)C(c1ccccc1)N1OC2C(=O)N(c3ccccc3)C(=O)C2C1c1c2ccccc2c(Cl)c2ccccc12` (stereo not given), for which, in test [1], the TGI is more than 100 µM.

The molecule `CNC(=O)OCC1=C(COC(=O)NC)C(C)N(c2ccc(OC)cc2)C1` (stereo not given) gave a TGI in test [1] of more than 100 µM.

`CC(=O)NC1=C(NCCC(C)C)C(=O)c2ccccc2C1=O`: the TGI in test [2], in test [1], in [3], in test [4], in test [5] and in test [9] was more than 50 µM in each case. Also, the TGI in test [6] and in test [8] was more than 50 µM in each case.

For `N#CC1=C(N)N(c2ccccc2)C(c2ccco2)C1(C#N)C#N` (stereo not given), the TGI in [1] was 38.9 µM.

In [1], `O=C(Cc1cccs1)N[C@@H]1C(=O)N2C(C(=O)OC(c3ccccc3)c3ccccc3)=C(CO)CS[C@H]12` returned a TGI of more than 100 µM.

Consider `COC(=O)[C@H]1CO[C@@H](C(C)(C)C)N1C(=O)N1C=CC(=O)C[C@@H]1C`, for which the TGI in test [1] was more than 100 µM.

For the molecule `O=S1(=O)NC(=NCc2c[nH]c3ccccc23)N(c2ccccc2)c2ccncc21`, in [1], the TGI was more than 100 µM.

Consider `CC(=O)NNc1nc(C)c(C(=O)NNC(=O)C(=O)Nc2c(Cl)cc([N+](=O)[O-])cc2Cl)s1`, for which the TGI in test [1] is 36.7 µM; in test [3], more than 100 µM; in test [4], more than 100 µM; in test [5], more than 100 µM; in [9], more than 100 µM; in test [7] it was 94.9 µM. Moreover, the TGI in test [8] is more than 100 µM.

As to `CC[C@@]1(O)C(=O)OCc2c1cc1n(c2=O)Cc2c-1nc1ccccc1c2/C=N\NC(=O)CN`, the TGI in test [1] worked out at 1.04 µM.

`Cc1ccsc1/C=N/Nc1ncccn1` returned a TGI in test [1] of more than 100 µM.

`Nc1cccc2cc(Cl)cnc12` had a TGI in [1] of more than 100 µM.

`CCc1ccc(CCN2CCCCC2)nc1` registered a TGI in test [1] of more than 100 µM.

As for `COc1c(C)c(C/C=C(\C)CCCCO[Si](c2ccccc2)(c2ccccc2)C(C)(C)C)c(OC)c(OC)c1OC`, the TGI in test [1] came to 38.7 µM.

For `COC(=O)c1cc2c(n1S(=O)(=O)c1ccc(C)cc1)C(=O)C(=O)c1[nH]cc(C(=O)OCc3ccccc3)c1-2`, the TGI in [1] came out at 0.211 µM.

On to `CC(C)CC(=O)OC[n+]1ccc(-c2c(COC(=O)NC(C)C)c(COC(=O)NC(C)C)c3n2CCC3)cc1`, for which, in test [1], the TGI is more than 100 µM.

In [1], `COC(=O)C1CCC(=O)N1C(c1ccccc1)c1ccc(OC)c(OC)c1` (stereo not given) came in with a TGI of more than 100 µM.

In the case of `COc1ccc(C2c3cc4c(cc3OC(NNS(=O)(=O)c3ccc(C)cc3)C2C)OCO4)cc1` (stereo not given), the TGI in test [1] was more than 100 µM.

`N.N.N.N.O=[N+]([O-])[O-].[Co+3].[N-]=[N+]=[N-].[N-]=[N+]=[N-]`: the TGI in test [1], in test [3], in [5], in test [9], in [6] and in test [8] was more than 100 µM each time. The GI50 in test [3], in test [5], in test [9], in [6] and in test [8] was more than 100 µM each time.

Turning to `CC(C)C1/C(=N/O)CC(c2ccccc2)N(N=O)C1c1ccccc1` (stereo not given), in [1], the TGI was more than 100 µM.

Molecule `COC(=O)[C@H](Cc1c[nH]c2ccccc12)NP(=O)(O)OCC1C=CC(n2cc(C)c(=O)[nH]c2=O)O1` (stereo not given in full) came in with a TGI in test [1] of more than 100 µM.

As for `O=[N+]([O-])C(=C1NCCN1)/C(Cl)=C(\Cl)Br`, the TGI in test [1] is more than 69.6 µM.

`Cc1cc(N(CCC#N)CCC#N)ccc1/C(N=Nc1ccc(Cl)cc1)=N\NC(=O)c1ccccc1` displayed a TGI in [1] of more than 100 µM.

Consider `O=C(O)CN(CC(=O)O)C1CCCCC1N(CC(=O)O)CC(=O)NCCN=C=S` (stereo not given), for which, in test [1], the TGI is more than 100 µM.

For `FC(F)(F)c1cc(Cl)cnc1N/N=C(/c1ccccc1)c1ccccn1`, the TGI in [1] came out at 14.4 µM.
